Here are results for 27 compounds from patent US6982348B2, “Aminoethanol derivatives” (Takeda Pharmaceutical Company Limited, priority 2001, dated 2006).

Usually melting point stands for the temperature, or range, at which the solid turns liquid.

`O=C(N[C@H](Cc1ccc(C(F)(F)F)cc1)[C@@H](O)c1ccc(F)cc1)C1CCCCC1` (racemic) [Example 52, N-((1RS,2SR)-2-(4-fluorophenyl)-2-hydroxy-1-((4-(trifluoromethyl)phenyl)methyl)ethyl)cyclohexanecarboxamide] had a melting point of 203 to 204 °C.

`O=C(N[C@H](Cc1cccc(C=C(F)C(F)F)c1)[C@@H](O)c1ccc(F)cc1)c1ccc(F)c2ccccc12` (racemic) [Example 336, 4-fluoro-N-[(1RS,2SR)-2-(4-fluorophenyl)-2-hydroxy-1-[3-(2,3,3-trifluoro-1-propenyl)benzyl]ethyl]naphthalene-1-carboxamide] displayed a melting point of 184 to 185 °C.

In the case of `N#Cc1ccc(C(=O)N[C@H](Cc2ccc(C(F)(F)F)cc2)[C@@H](O)c2ccc(F)cc2)c2ccccc12` (racemic) [Example 54, 4-cyano-N-[(1RS,2SR)-2-(4-fluorophenyl)-2-hydroxy-1-[4-(trifluoromethyl)benzyl]ethyl]naphthalene-1-carboxamide], the melting point was 199 to 201 °C.

The compound `O=C(N[C@H](Cc1cccc(CC(F)(F)C(F)F)c1)[C@@H](O)c1ccc(F)cc1)c1cccc2c1C=CCCC2` (racemic) [Example 338, N-[(1RS,2SR)-2-(4-fluorophenyl)-2-hydroxy-1-[3-(2,2,3,3-tetrafluoropropyl)benzyl]ethyl]-6,7-dihydro-5H-benzo[a]cycloheptene-1-carboxamide] came in with a melting point of 165 to 166 °C.

`O=C(N[C@H](Cc1ccc(C(F)(F)F)cc1)[C@@H](O)c1ccc(F)cc1)c1cccc(Cl)c1Cl` (racemic) [Example 50, 2,3-dichloro-N-((1RS,2SR)-2-(4-fluorophenyl)-2-hydroxy-1-((4-(trifluoromethyl)phenyl)methyl)ethyl)benzamide] showed a melting point of 187 to 188 °C.

In the case of `O=C(N[C@H](Cc1ccc(C(F)(F)F)cc1)[C@@H](O)c1ccc(F)cc1)c1cccc2c(F)cccc12` (racemic) [Example 32, 5-fluoro-N-[(1RS,2SR)-2-(4-fluorophenyl)-2-hydroxy-1-[4-(trifluoromethyl)benzyl]ethyl]naphthalene-1-carboxamide], the melting point lay within 222 to 224 °C.

For the compound `CC(C)(C)OC(=O)N[C@H](Cc1cccc(OC(F)(F)C(F)F)c1)[C@@H](O)c1ccnc(F)c1` (racemic) [Example 219, 1,1-dimethylethyl(1RS,2SR)-2-(2-fluoropyridin-4-yl)-2-hydroxy-1-((3-(1,1,2,2-tetrafluoroethoxy)phenyl)methyl)ethylcarbamate], the melting point was 143 to 144 °C.

In the case of `O=C(N[C@H](Cc1cccc(OCC(F)(F)F)c1)[C@@H](O)c1ccc(F)cc1)c1ccc(F)c2ccccc12` (racemic) [Example 170, N-((1RS,2SR)-2-(4-fluorophenyl)-2-hydroxy-1-((3-(2,2,2-trifluoroethoxy)phenyl)methyl)ethyl)-4-fluoro-1-naphthalenecarboxamide], the melting point is 192 to 193 °C.

`O=C(N[C@H](Cc1ccc(C(F)(F)F)cc1)[C@@H](O)c1ccc(F)cc1)c1c(CSc2ccccc2)ccc2ccccc12` (racemic) [Example 97, N-[(1RS,2SR)-2-(4-fluorophenyl)-2-hydroxy-1-[4-(trifluoromethyl)benzyl]ethyl]-2-[(phenylthio)methyl]naphthalene-1-carboxamide]: the melting point is 102 to 104 °C.

As for `O=C(N[C@H](Cc1cccc(S(=O)(=O)C(F)(F)F)c1)[C@@H](O)c1ccc(F)cc1)c1ccc(F)c2ccccc12` (racemic) [Example 281, 4-fluoro-N-((1RS,2SR)-2-(4-fluorophenyl)-2-hydroxy-1-{3-[(trifluoromethyl)sulfonyl]benzyl}ethyl)-1-naphthamide], the melting point was in the range of 157 to 158 °C.

For the compound `O=C(N[C@H](Cc1ccc2c(c1)OC(F)(F)O2)[C@@H](O)c1ccc(F)cc1)c1ccc(F)c2ccccc12` (racemic) [Example 167, N-[(1RS,2SR)-1-[(2,2-difluoro-1,3-benzodioxol-5-yl)methyl]-2-(4-fluorophenyl)-2-hydroxyethyl]-4-fluoronaphthalene-1-carboxamide], the melting point fell in the range of 219 to 220 °C.

Compound `O=C(N[C@H](Cc1cccc(CC(F)(F)C(F)F)c1)[C@@H](O)c1ccc(F)cc1)c1ccc(F)c2ccccc12` (racemic) [Example 339, 4-fluoro-N-[(1RS,2SR)-2-(4-fluorophenyl)-2-hydroxy-1-[3-(2,2,3,3-tetrafluoropropyl)benzyl]ethyl]naphthalene-1-carboxamide] yielded a melting point of 172 to 173 °C.

As for `COc1ccc(C(=O)N[C@H](Cc2ccc(C(F)(F)F)cc2)[C@@H](O)c2ccc(F)cc2)c2ccccc12` (racemic) [Example 101, N-[(1RS,2SR)-2-(4-fluorophenyl)-2-hydroxy-1-[4-(trifluoromethyl)benzyl]ethyl]-4-methoxynaphthalene-1-carboxamide], the melting point was 227 to 228 °C.

As for `NC(=O)c1ccc([C@H](O)[C@@H](Cc2cccc(OC(F)(F)C(F)F)c2)NC(=O)c2cccc3c2C=CCCC3)cc1` (racemic) [Example 311, N-[(1RS,2SR)-2-[4-(aminocarbonyl)phenyl]-2-hydroxy-1-[3-(1,1,2,2-tetrafluoroethoxy)benzyl]ethyl]-6,7-dihydro-5H-benzo[a]cycloheptene-1-carboxamide], the melting point is 197 to 199 °C.

`COC(=O)c1ccc([C@@H](O)[C@H](Cc2cccc(OC(F)(F)C(F)F)c2)NC(=O)c2cccc3c2C=CCCC3)cc1` (racemic) [Example 309, methyl 4-[(1RS,2SR)-2-[(6,7-dihydro-5H-benzo[a]cyclohepten-1-ylcarbonyl)amino]-1-hydroxy-3-[3-(1,1,2,2-tetrafluoroethoxy)phenyl]propyl]benzoate]: the melting point fell in the range of 137 to 138 °C.

`CC(C)(F)C(F)c1cccc(C[C@@H](NC(=O)c2cccc3c2C=CCCC3)[C@@H](O)c2ccc(F)cc2)c1` (mixture of isomers) [Example 342, N-[(1RS,2SR)-1-[3-(1,2-difluoro-2-methylpropyl)benzyl]-2-(4-fluorophenyl)-2-hydroxyethyl]-6,7-dihydro-5H-benzo[a]cycloheptene-1-carboxamide] returned a melting point of 102 to 104 °C.

The compound `O=C(NC(Cc1ccc(C(F)(F)F)cc1)C(O)c1ccc(F)cc1)c1ccc(C(F)(F)F)cc1` (racemic) [Example 12, N-[2-(4-fluorophenyl)-2-hydroxy-1-[[4-(trifluoromethyl)phenyl]methyl]ethyl]-4-(trifluoromethyl)benzamide] yielded a melting point of 167 to 169 °C.

Compound `CC(C)(C)OC(=O)N[C@H](Cc1cc(OC(F)(F)C(F)F)no1)[C@@H](O)c1ccc(F)cc1` (racemic) [Example 319, tert-butyl N-[(1RS,2SR)-2-(4-fluorophenyl)-2-hydroxy-1-[[3-(1,1,2,2-tetrafluoroethoxy)isooxazol-5-yl]methyl]ethyl]carbamate] had a melting point of 114 to 115 °C.

On to `O=C(N[C@H](Cc1ccc(C(F)(F)F)c(F)c1)[C@@H](O)c1ccc(F)cc1)c1ccc(F)c2ccccc12` (racemic) [Example 156, N-((1RS,2SR)-2-(4-fluorophenyl)-1-((3-fluoro-4-(trifluoromethyl)phenyl)methyl)-2-hydroxyethyl)-4-fluoro-1-naphthalenecarboxamide], for which the melting point lay in the range of 212 to 213 °C.

In turn, `O=C(N[C@H](Cc1ccc(C(F)(F)F)cc1)[C@@H](O)c1ccc(F)cc1)c1cc([N+](=O)[O-])cc2ccccc12` (racemic) [Example 102, N-[(1RS,2SR)-2-(4-fluorophenyl)-2-hydroxy-1-[4-(trifluoromethyl)benzyl]ethyl]-3-nitronaphthalene-1-carboxamide] came in with a melting point of 231 to 232 °C.

For the compound `CC(C)(C)COc1cccc(C[C@@H](NC(=O)c2ccc(F)c3ccccc23)[C@@H](O)c2cccc(Cl)c2)c1` (racemic) [Example 366, N-[(1RS,2SR)-1-[3-(neopentyloxy)benzyl]-2-(3-chlorophenyl)-2-hydroxyethyl]-4-fluoro-1-naphthamide], the melting point lay in the range of 165 to 166 °C.

With `O=C(O)c1ccc([C@@H](O)[C@H](Cc2cccc(OC(F)(F)C(F)F)c2)NC(=O)c2cccc3c2C=CCCC3)cc1` (racemic) [Example 310, 4-[(1RS,2SR)-2-[(6,7-dihydro-5H-benzo[a]cyclohepten-1-ylcarbonyl)amino]-1-hydroxy-3-[3-(1,1,2,2-tetrafluoroethoxy)phenyl]propyl]benzoic acid], the melting point was 210 to 211 °C.

The compound `O=C(N[C@H](Cc1ccc(C(F)(F)F)cc1)[C@@H](O)c1ccc(Oc2ccccc2)cc1)c1ccc(F)c2ccccc12` (racemic) [Example 209, N-((1RS,2SR)-2-hydroxy-2-(4-phenoxyphenyl)-1-((4-(trifluoromethyl)phenyl)methyl)ethyl)-4-fluoro-1-naphthalenecarboxamide] registered a melting point of 205 to 210 °C.

Regarding `Cc1ccc(C(=O)N[C@H](Cc2cccc(OC(F)(F)C(F)F)c2)[C@@H](O)c2ccc(F)cc2)c2c1CCCC=C2` (racemic) [Example 318, N-[(1RS,2SR)-2-(4-fluorophenyl)-2-hydroxy-1-[3-(1,1,2,2-tetrafluoroethoxy)benzyl]ethyl]-4-methyl-6,7-dihydro-5H-benzo[a]cycloheptene-1-carboxamide], the melting point fell in the range of 177 to 178 °C.

Compound `O=C(N[C@H](Cc1ccc(C(F)(F)F)cc1)[C@@H](O)c1ccc(Cl)nc1)c1ccc(F)c2ccccc12` (racemic) [Example 202, N-((1RS,2SR)-2-(6-chloro-3-pyridyl)-2-hydroxy-1-((4-(trifluoromethyl)phenyl)methyl)ethyl)-4-fluoro-1-naphthalenecarboxamide] showed a melting point of 188 to 189 °C.

For the compound `O=C(N[C@H](Cc1ccc(C(F)(F)F)cc1)[C@@H](O)c1ccc(F)cc1)OCc1ccccc1` (racemic) [Example 114, benzyl N-[(1RS,2SR)-2-(4-fluorophenyl)-2-hydroxy-1-[4-(trifluoromethyl)benzyl]ethyl]carbamate], the melting point was 151 to 152 °C.

The compound `O=C(CC(F)(F)F)N[C@H](Cc1ccc(C(F)(F)F)cc1)[C@@H](O)c1ccc(F)cc1` (racemic) [Example 109, N-[(1RS,2SR)-2-(4-fluorophenyl)-2-hydroxy-1-[4-(trifluoromethyl)benzyl]ethyl]-3,3,3-trifluoropropionamide] showed a melting point of 179 to 180 °C.
